This note sets out measurements from ChEMBL document CHEMBL1201862, “PubChem BioAssay data set” (2004).

Active and inactive are the calls of the source.

One assay has as its target Cytochrome P450 2C19 (Homo sapiens, UniProt P33261). Nature of the assay: Cytochrome panel assay with activity outcomes. Panel member name: p450-cyp2c19 Compounds with AC50 equal or less than 10 uM are considered active. Format: functional. Conditions: read-out: AC50.
Assay [1] can be described thus: cells. Type of assay: functional, cell-based.
In assay [2] the target is T1, Trace amine-associated receptor 1 (Homo sapiens, UniProt Q96RJ0).
T1 sequence (Q96RJ0 whole entry): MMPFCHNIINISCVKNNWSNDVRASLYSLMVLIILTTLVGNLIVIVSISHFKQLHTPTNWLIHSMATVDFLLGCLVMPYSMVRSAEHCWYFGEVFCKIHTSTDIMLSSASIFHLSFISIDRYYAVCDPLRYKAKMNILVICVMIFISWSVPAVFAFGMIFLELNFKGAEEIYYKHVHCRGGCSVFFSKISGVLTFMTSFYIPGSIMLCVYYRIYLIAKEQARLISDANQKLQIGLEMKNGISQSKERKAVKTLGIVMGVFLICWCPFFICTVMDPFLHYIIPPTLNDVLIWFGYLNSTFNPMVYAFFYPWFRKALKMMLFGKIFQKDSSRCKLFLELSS
The assay can be described thus: Fluorescence-based cell-based high throughput dose response assay to identify agonists of the human trace amine associated receptor 1 (TAAR1). Type of assay: functional.

Assay [3] addresses T1, Trace amine-associated receptor 1. The assay can be described thus: Counterscreen for agonists of the human trace amine associated receptor 1 (hTAAR1): Fluorescence-based cell-based high throughput dose response assay to identify hTAAR1 agonist that also desensitize TAAR1 receptor response. Type of assay: functional.
A short description of assay [4]: cells. Type of assay: functional, cell-based. This is another data set of the same source.
A further assay addresses Cytochrome P450 2C9 (Homo sapiens, UniProt P11712).
A short description of assay [5]: cytotoxicity in MITF-independent A375 cells – cell-based, CellTiter-Glo luminescence, dry powder, set 4, counter-screen for MITF inhibitor project, dose response (AID 624364).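 Further: A375 melanoma cells are MITF independent so this is a counter screen.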 The following applies: A-375. Format: functional. (In general: Cellular ATP, detected with luciferase, serves as a proxy for viable cell number.)
Assay [6] is described as follows: viability loss in MITF-independent A375 cells – cell-based, CellTiter-Glo luminescence, dry powder, set 2, counter-screen for MITF inhibitor project, dose response (AID 624489).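 Further: actives are compounds lowering A375 viability meaning general cytotoxicity.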 Format: functional. The following applies: A-375.
The nature of assay [7]: A549 cell cytotoxicity, dose response, cytotoxicity control, plate reader, cherry-pick, antagonist series (AID 743412). Format: functional, cell-based.
The nature of assay [8]: toxicity toward HepG2 liver cells – cell-based, plate reader, cherry-pick, antagonist series, cytotoxicity control, dose response (AID 743416). Type of assay: functional.
A short description of assay [9]: blockers of bursicon-stimulated LGR2 cAMP reporter – cell-based, HEK293, CRE-luciferase reporter, cherry pick, set 2, dose response (AID 743343).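 Further: transfected cells were stimulated with diluted bursicon conditioned medium after compound addition.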 Format: functional. For orientation: In a reporter assay the amount or activity of a reporter protein is the signal.
The nature of assay [10]: blockade of melanocortin 4 receptor signaling – cell-based, plate reader, cherry pick, counter-screen for LGR2 antagonist project, dose response (AID 743444).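 Further: transfected HEK 293 cells stimulated with alpha-MSH peptide; potency of inhibitors of the alpha-MSH evoked signal.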 Type of assay: functional. For orientation: Counterscreens check selectivity or assay interference.
Assay [11] addresses T2, Oxysterols receptor LXR-beta (Homo sapiens, UniProt P55055).
T2 sequence (P55055 whole entry): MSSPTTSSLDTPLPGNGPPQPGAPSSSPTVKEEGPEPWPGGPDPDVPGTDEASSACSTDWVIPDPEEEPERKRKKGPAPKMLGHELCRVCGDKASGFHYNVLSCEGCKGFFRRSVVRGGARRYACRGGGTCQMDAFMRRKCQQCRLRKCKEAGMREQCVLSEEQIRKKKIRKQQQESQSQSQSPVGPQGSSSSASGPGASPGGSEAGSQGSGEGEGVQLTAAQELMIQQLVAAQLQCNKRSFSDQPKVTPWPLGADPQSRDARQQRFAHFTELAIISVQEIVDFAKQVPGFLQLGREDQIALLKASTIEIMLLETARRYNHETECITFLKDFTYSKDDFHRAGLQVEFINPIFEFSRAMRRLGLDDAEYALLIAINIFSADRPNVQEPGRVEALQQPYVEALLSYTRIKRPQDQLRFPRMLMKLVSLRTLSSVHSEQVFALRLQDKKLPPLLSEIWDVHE
Type of assay: functional, cell-based.

The nature of assay [12]: viability loss in HEK293 cells – cell-based, plate reader, cherry-picked samples, cytotoxicity control, dose response (AID 743446). Format: functional.
A short description of assay [13]: cells.
The target of another assay is fMet-Leu-Phe receptor (Homo sapiens, UniProt P21462). The assay can be described thus: formyl peptide receptor binders – dose response (AID 519). Type of assay: functional.
A further assay addresses Major prion protein (Homo sapiens, UniProt P04156). Format: functional, cell-based.
Assay [14] in a line: cells. The source holds these as a separate data set.
A further assay has as its target T3, Aminopeptidase N (Plasmodium falciparum FcB1/Columbia, UniProt O96935).
T3 sequence (O96935 whole entry): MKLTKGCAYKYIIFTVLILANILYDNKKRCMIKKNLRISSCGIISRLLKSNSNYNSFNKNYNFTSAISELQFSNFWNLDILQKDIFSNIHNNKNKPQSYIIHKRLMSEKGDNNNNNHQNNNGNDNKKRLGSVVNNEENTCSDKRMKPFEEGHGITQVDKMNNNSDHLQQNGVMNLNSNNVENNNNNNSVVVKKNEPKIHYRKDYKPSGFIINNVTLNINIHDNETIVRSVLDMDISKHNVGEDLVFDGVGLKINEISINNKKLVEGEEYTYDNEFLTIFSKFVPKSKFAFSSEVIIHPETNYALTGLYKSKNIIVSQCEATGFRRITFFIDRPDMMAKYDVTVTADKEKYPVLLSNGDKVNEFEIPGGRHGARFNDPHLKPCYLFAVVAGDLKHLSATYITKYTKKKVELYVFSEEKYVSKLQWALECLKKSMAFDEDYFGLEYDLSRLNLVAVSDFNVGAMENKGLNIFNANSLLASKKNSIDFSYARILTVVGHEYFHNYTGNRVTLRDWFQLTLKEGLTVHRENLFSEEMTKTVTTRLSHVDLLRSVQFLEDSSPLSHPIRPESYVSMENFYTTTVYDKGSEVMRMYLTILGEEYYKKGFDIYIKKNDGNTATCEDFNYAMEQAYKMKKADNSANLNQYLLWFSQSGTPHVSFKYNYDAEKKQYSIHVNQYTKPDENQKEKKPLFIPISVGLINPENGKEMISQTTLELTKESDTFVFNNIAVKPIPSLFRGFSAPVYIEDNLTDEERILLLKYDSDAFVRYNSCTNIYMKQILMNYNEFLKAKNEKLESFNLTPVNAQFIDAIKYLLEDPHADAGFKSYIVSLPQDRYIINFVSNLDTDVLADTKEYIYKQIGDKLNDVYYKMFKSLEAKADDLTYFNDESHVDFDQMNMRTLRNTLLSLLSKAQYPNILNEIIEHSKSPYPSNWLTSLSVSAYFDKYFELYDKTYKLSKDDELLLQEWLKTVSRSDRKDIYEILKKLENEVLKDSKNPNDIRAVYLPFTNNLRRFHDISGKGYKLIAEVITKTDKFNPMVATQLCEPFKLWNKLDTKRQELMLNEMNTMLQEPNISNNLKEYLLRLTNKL
Nature of the assay: malaria alanyl aminopeptidase activity blockers – biochemical, fluorogenic H-Leu-NHMec substrate, 1536-well (AID 1445). On the set-up: species or system Plasmodium falciparum 3D7, 3D7.

In assay [15] the test system is Streptococcus sp. 'group A'. Nature of the assay: Streptococcus pyogenes SK(-)GAS viability under kanamycin – luminescence, BacTiterGlo, confirmation, counter-screen for streptokinase expression inhibitor project, dose response (AID 1900). Format: functional, organism-based.
A further assay deals with T4, Streptokinase A (Streptococcus pyogenes serotype M1, UniProt P10520).
T4 sequence (P10520 whole entry): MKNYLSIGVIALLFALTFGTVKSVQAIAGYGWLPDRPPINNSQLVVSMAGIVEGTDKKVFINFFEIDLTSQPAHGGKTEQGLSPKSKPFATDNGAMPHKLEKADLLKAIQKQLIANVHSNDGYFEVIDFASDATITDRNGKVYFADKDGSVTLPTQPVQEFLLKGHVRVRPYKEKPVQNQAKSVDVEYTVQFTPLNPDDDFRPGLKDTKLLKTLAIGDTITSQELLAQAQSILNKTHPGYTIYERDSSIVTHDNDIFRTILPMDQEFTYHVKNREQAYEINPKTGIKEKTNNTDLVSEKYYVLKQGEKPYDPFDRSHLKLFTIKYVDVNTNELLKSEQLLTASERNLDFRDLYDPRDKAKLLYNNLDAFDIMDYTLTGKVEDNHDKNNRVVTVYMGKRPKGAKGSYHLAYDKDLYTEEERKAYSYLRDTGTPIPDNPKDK
Nature of the assay: viability-normalized secreted streptokinase activity reduction – plasminogen activation absorbance, OD405, dose response (AID 1914).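 Further: secreted streptokinase activity via plasminogen activation per viability signal from cell pellet.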 Format: functional, Streptococcus pyogenes M1 GAS.

Assay [16] is described as follows: HPDE-C7 pancreatic duct cell viability loss – fluorescence, HTS (AID 430). Type of assay: functional, cell-based. Conditions: Homo sapiens.
A short description of assay [17]: viability loss of HPDE-C7K cells – cell-based, fluorescence, HTS, primary screen (AID 431). Type of assay: functional. Conditions: Homo sapiens.
For the next assay, the system named is Streptococcus. The assay can be described thus: GAS UMAA2166 growth inhibition – luminescence, BacTiterGlo, counter-screen for streptokinase expression inhibitor project, dose response (AID 1915).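 Further: potency for reduction of bacterial viability or growth.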 Format: functional, organism-based.
The target in another assay is Albumin (Bos taurus, UniProt P02769). The assay can be described thus: Counterscreen for inhibitors of T-cell receptor (TCR)-CD3 interaction: Fluorescence-based biochemical high throughput dose response assay to identify inhibitors of T-cell receptor (TCR)-CD3 interaction using a TAMRA-labeled BSA probe. Format: functional.
Assay [18] in a line: Trypanosoma cruzi growth suppression in host cells – NIH3T3 host cells, beta-gal luminescence, confirmation (AID 2044).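 Further: intracellular parasites grown in NIH/3T3 mouse fibroblasts as host cells; luminescent beta-galactosidase reporter signal from transgenic T. cruzi replicating inside host cells; inhibitors lower the luminescence signal.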 Format: functional, cell-based.
Assay [19] can be described thus: NIH3T3 cell viability loss – ATP luminescence, mouse fibroblasts, counter-screen, dose response (AID 2010).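 Further: cells exposed to compound for about 90 hours before reading.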 Type of assay: functional, cell-based.
Assay [20] has as its target Induced myeloid leukemia cell differentiation protein Mcl-1 (Homo sapiens, UniProt Q07820). Type of assay: functional.

Usually AC50 stands for the midpoint of the concentration-response curve, whichever way the signal moves. As a reminder, the IC50 is the concentration at which inhibition is half-maximal. What is called EC50 is the concentration at which the effect is half-maximal. `CC1CN(C(NC(=O)C(C)(C)C)C(Cl)(Cl)Cl)CC(C)O1` (stereo not drawn): the results for the concentration at half-maximal activity (AC50) at Cytochrome P450 2C19 and on Cytochrome P450 2C9 were 8.91 µM (inconclusive) and 14.1 µM (inconclusive), respectively. Besides, the IC50 is > 29.9 µM (inactive) in “cells [1]” and 21.6 µM (inactive) in [3]. The results for the half-maximal effective concentration (EC50) (in [2]; in “cells [4]”) were 3.82 µM (active) and > 29.9 µM (inactive), respectively.

Take `O=C(NC1=C(c2ccccc2)C(=O)c2ccccc2C1=O)c1ccco1`: the AC50 in assay [5] is 21.3 µM (active); in [6], 14.2 µM (active).

Regarding `O=C(NC1=C(c2ccccc2)C(=O)c2ccccc2C1=O)c1ccc(Br)cc1`, the values for the AC50 in assay [5] and in assay [6] were 45.8 µM (active) and 22.9 µM (active), respectively.

With `COc1ccc(C(=O)Nc2nnc(-c3cccs3)s2)cc1`, the half-maximal activity concentration (AC50) in assay [7] is 44.5 µM (active); in assay [8], 45.2 µM (active); in assay [9] it was 5.12 µM (active); in assay [10], 3.17 µM (active); in [12], > 52 µM (inactive). The EC50 (in assay [11]; in the assay “cells [13]”) was > 67.5 µM (inactive) each time.

Broadly, the Ki is the dissociation constant of the complex between target and ligand, obtained from inhibition or displacement. For `CCCC(=O)Nc1c2c(nn1-c1ccc(OC)cc1)C[S+]([O-])C2` (stereo not drawn), the Ki on fMet-Leu-Phe receptor was > 66.7 µM (inactive).

With `CCc1nc(SCC(=O)NNC(=O)C(C)C)c2ccccc2n1`, the IC50 at Major prion protein is 1.93 µM (active); in the assay “cells [14]”, > 138 µM (inactive).

On to `O=C(CSC1=Nc2ccc(Cl)cc2S(=O)(=O)N1)NCCc1ccccc1`, for which the values for the IC50 (in the assay “cells [1]”; in assay [3]) were > 29.9 µM (inactive) and 2.41 µM (active), respectively. For the same compound, the concentration giving a half-maximal response (EC50) is 0.295 µM (active) in [2] and > 29.9 µM (inactive) in the assay “cells [4]”.

Regarding `CCCCCNC(=O)c1ccc2c(=O)[nH]c3c(C(=O)NCC4CCCO4)sc(=S)n3c2c1` (stereo not drawn), the 50% inhibitory concentration (IC50) on Aminopeptidase N is 37 µM (active). The 50% effective concentration (EC50) in assay [15] is 0.944 µM (active); at Streptokinase A it was 21.1 µM (inconclusive); in assay [16] it was 17.6 µM (active); in assay [17], > 20 µM (not active); in the assay with Streptococcus it was > 150 µM (not active). In addition, the Ki on fMet-Leu-Phe receptor is 40.7 µM (inactive).

On to `Cc1cc(NC(=O)CSc2nc(CCC3CCCC3)nc3ccccc23)no1`, for which the half-maximal inhibitory concentration (IC50) at Major prion protein is 9.42 µM (active); in the assay “cells [14]” it was > 138 µM (inactive).

With `O=C(Cc1ccccc1)NNC(=S)NC(=O)c1cccnc1`, the IC50 on Albumin was > 94.1 µM (inactive).

As to `CCc1nnc(S)n1/N=C/c1cc(OC)cc([N+](=O)[O-])c1O`, the concentration for a half-maximal effect (EC50) in assay [18] was 0.815 µM (active); in [19], > 60 µM (not active). Moreover, the IC50 is 12.4 µM (active) in assay [20] and > 94.1 µM (inactive) on Albumin.
